This is an account of results in ChEMBL document CHEMBL1201862, “PubChem BioAssay data set” (2004).

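Exposure lasted 48 hours, with cells grown in 96-well plates and compounds tested at five concentrations. GI50 marks 50% less growth.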 Active and inactive are the calls of the source. Rule as the data show it: active = GI50 up to about 1.1 µM and inactive = higher. Some results are limits rather than exact numbers.

Some test systems named below: SR; HCT-116; NCI/ADR-RES; UACC-257; SK-MEL-5; ACHN; SW-620; M14; KM12; MDA-MB-231; LOX IMVI; MDA-MB-435; EKVX; SF-539; MDA-N; SF-268; SNB-75; COLO 205; NCI-H23; Malme-3M.
Holding throughout (experiment): growth of human tumour cells (NCI), 48 h

Consider `Cc1ccnc2nc(-c3cccc(Cl)c3)cc(O)c12`, for which the GI50 with SR is 0.0325 µM (active); with HCT-116, 0.0269 µM (active); in the experiment on NCI/ADR-RES, 0.1 µM (active); with UACC-257, > 100 µM (inactive); in the experiment with SK-MEL-5, 0.038 µM (active); in the experiment on ACHN it was 1.34 µM (inactive). Besides, the GI50 with SW-620 is 0.0524 µM (active); in the experiment with M14, 0.0822 µM (active); in the experiment with KM12, 0.0682 µM (active); in the experiment with MDA-MB-231 it was 0.108 µM (active); in the experiment with LOX IMVI, 0.155 µM (active); in the experiment with MDA-MB-435, < 0.01 µM (active). Besides, the GI50 is > 100 µM (inactive) in the experiment with EKVX; 0.0906 µM (active) with SF-539; 0.0108 µM (active) in the experiment with MDA-N; 20.7 µM (inactive) with SF-268; > 10 µM (inactive) in the experiment with SNB-75; 0.0598 µM (active) with COLO 205. The GI50 in the experiment on NCI-H23 is 0.826 µM (active).
Consider `COc1c(C)c(C/C=C(\C)CCCC(C)CCCC(C)CCCC(C)C)c(OC)c2ccccc12` (centres undefined), for which the GI50 in the experiment with SR, with HCT-116, in the experiment with NCI/ADR-RES, in the experiment with UACC-257, in the experiment with SK-MEL-5 and with ACHN was > 100 µM (inactive) each time. Besides, the GI50 in the experiment on SW-620, with M14, in the experiment with KM12, in the experiment on MDA-MB-231, in the experiment on LOX IMVI and in the experiment on MDA-MB-435 was > 100 µM (inactive) in each case. Further, the GI50 with EKVX, with SF-539, with MDA-N, in the experiment with SF-268, with SNB-75 and in the experiment on COLO 205 was > 100 µM (inactive) in each case. Moreover, the GI50 in the experiment on NCI-H23 is > 100 µM (inactive).
For the compound `COc1ccc(-c2nc(-c3cnccn3)n(C3OC(CO)C(O)C(O)C3O)n2)cc1` (centres undefined), the GI50 with SR, with HCT-116, in the experiment with NCI/ADR-RES, in the experiment with UACC-257, in the experiment with SK-MEL-5 and in the experiment on SW-620 was > 100 µM (inactive) each time. For the same compound, the GI50 in the experiment with M14, with KM12, in the experiment with MDA-MB-231, in the experiment on LOX IMVI, with MDA-MB-435 and in the experiment on EKVX was > 100 µM (inactive) each time. Further, the GI50 with SF-539, in the experiment on MDA-N, in the experiment with SF-268, in the experiment with SNB-75, in the experiment on COLO 205 and with NCI-H23 was > 100 µM (inactive) in each case.
Regarding `COc1cc2c(c(OC3OC(CO)C(O)C(O)C3O)c1)C(=O)CC(c1ccc(O)cc1)O2` (centres undefined), the GI50 in the experiment on SR, in the experiment on HCT-116, in the experiment with NCI/ADR-RES, in the experiment on UACC-257, in the experiment on SK-MEL-5 and in the experiment with ACHN was > 100 µM (inactive) each time. In addition, the GI50 in the experiment on SW-620, with M14, in the experiment on KM12, with MDA-MB-231, in the experiment with LOX IMVI and in the experiment on MDA-MB-435 was > 100 µM (inactive) throughout. The GI50 in the experiment on EKVX, in the experiment on SF-539, with MDA-N, with SF-268, in the experiment on SNB-75 and in the experiment on COLO 205 was > 100 µM (inactive) in each case. In the experiment on NCI-H23, the GI50 is > 100 µM (inactive).
Turning to `CC(=O)NNC1=NN(C(C)=O)C2(S1)C(=O)Nc1ccccc12` (centres undefined), the GI50 is > 100 µM (inactive) in the experiment with SR; > 100 µM (inactive) in the experiment with HCT-116; > 100 µM (inactive) with NCI/ADR-RES; > 10 µM (inactive) with UACC-257; > 100 µM (inactive) in the experiment with SK-MEL-5; > 100 µM (inactive) in the experiment with ACHN. In addition, the GI50 in the experiment on SW-620, with M14, in the experiment with KM12, in the experiment with MDA-MB-231, in the experiment on LOX IMVI and in the experiment with Malme-3M was > 100 µM (inactive) in each case. Further, the GI50 in the experiment on MDA-MB-435 is > 100 µM (inactive); with EKVX it was > 100 µM (inactive); with SF-539, > 100 µM (inactive); in the experiment on MDA-N it was > 100 µM (inactive); in the experiment with SF-268, > 100 µM (inactive); with SNB-75 it was 65.8 µM (inactive). In addition, the GI50 in the experiment with NCI-H23 was > 100 µM (inactive).
In the case of `COC(=O)c1c(O)ccc2c1c1c(n2Cc2ccc(OC)cc2)C(=O)c2ccccc2C1`, the GI50 with SR was 66.2 µM (inactive); in the experiment with HCT-116 it was 60.4 µM (inactive); with NCI/ADR-RES, 32.9 µM (inactive); in the experiment on UACC-257, 44.4 µM (inactive); in the experiment on SK-MEL-5 it was 44.6 µM (inactive); with SW-620, 82.8 µM (inactive). The GI50 in the experiment on M14 is 38.7 µM (inactive); in the experiment with KM12, 63.7 µM (inactive); with MDA-MB-231, 32.4 µM (inactive); in the experiment with LOX IMVI, 57.7 µM (inactive); with Malme-3M it was > 100 µM (inactive); in the experiment on MDA-MB-435, 45.7 µM (inactive). Moreover, the GI50 with SF-539 is 42.2 µM (inactive); with MDA-N it was 53.1 µM (inactive); with SF-268, 30.3 µM (inactive); in the experiment with SNB-75 it was 51.2 µM (inactive); in the experiment with COLO 205, 16.9 µM (inactive); with NCI-H23, 63.4 µM (inactive).
`N#Cc1ccc2oc3ccc(C#N)cc3c(=O)c2c1`: the GI50 was 41.6 µM (inactive) in the experiment with SR; 29 µM (inactive) in the experiment with HCT-116; > 100 µM (inactive) with NCI/ADR-RES; > 100 µM (inactive) in the experiment with UACC-257; 5.6 µM (inactive) with SK-MEL-5; > 100 µM (inactive) in the experiment on ACHN. Moreover, the GI50 with SW-620 was 51.5 µM (inactive); with M14, > 100 µM (inactive); in the experiment with KM12, 46.5 µM (inactive); in the experiment on MDA-MB-231 it was > 100 µM (inactive); in the experiment on Malme-3M it was 24.2 µM (inactive); in the experiment on MDA-MB-435, 34.4 µM (inactive). Moreover, the GI50 was 21.3 µM (inactive) in the experiment with SF-539; 16.4 µM (inactive) in the experiment with MDA-N; 35.9 µM (inactive) in the experiment on SF-268; 31.7 µM (inactive) with SNB-75; 26.7 µM (inactive) with COLO 205; 21.3 µM (inactive) in the experiment on NCI-H23.
For `CC(C)(/N=N/C(C)(C)C(=N)N)C(=N)N`, the GI50 in the experiment with SR, in the experiment on HCT-116, in the experiment with NCI/ADR-RES, with UACC-257, in the experiment on SK-MEL-5 and in the experiment with ACHN was > 100 µM (inactive) in each case. Besides, the GI50 in the experiment on SW-620, with M14, in the experiment with KM12, in the experiment on MDA-MB-231, with LOX IMVI and in the experiment with MDA-MB-435 was > 100 µM (inactive) throughout. In addition, the GI50 with EKVX, in the experiment on SF-539, in the experiment with MDA-N, in the experiment on SF-268, with SNB-75 and with COLO 205 was > 100 µM (inactive) in each case. Further, the GI50 in the experiment on NCI-H23 is > 100 µM (inactive).
